Data set [1] relates to EMT-6 mammary tumors. Kind of data set: Comparison with [18F]FLT in tumor-bearing mice. The data set is classed as in vivo. Conditions: 1 hr for [11C]10; 2 hr post-i.v. injection for [76Br]6 and [125I]6i.
In data set [2] the test system is EMT-6 mammary tumors. Nature of the data set: Biodistribution study of [76Br]6 (Example 4), low and high dose groups. The data set is classed as in vivo, Balb/C mice. From the text: This compound was studied in mature Balb/C mice that were implanted with EMT-6 mammary tumors. The mice were implanted in the nape of the neck 7 days prior to the study. The biodistribution study consisted of three groups: 1 hr low dose (≈6 μCi), 4 hr low dose and a 4 hr high dose (≈150 μCi). The % ID/g at 1 hr for tumor, brain, fat, blood and liver were 4.0±0.4, 0.25±0.02, 1.1±0.4, 2.1±0.3 and 5.4±0.4, respectively. At 4 hr for the low dose animals the values decreased to 1.2±0.2, 0.15±0.02, 0.3±0.2, 0.82±0.08 and 1.3±0.2, respectively. […] The activity injected into the high dose animals was enough to perform microPET® imaging studies. […] This initial study has shown that this σ2 receptor compound has a high uptake into EMT-6 mammary tumors and can be imaged non-invasively. (MicroPET® is a dedicated PET scanner designed for high resolution imaging of small laboratory animals. It is available from Concorde Microsystems, Inc. 10427 Cogdill Rd, Suite 500 Knoxville, Tenn. 37932 USA.)

The values below come from US7893266B2, “Detection of cancer cells in vitro using sigma-2 receptor ligands as radiotracers” (Washington University, priority 2003, dated 2011).

SMILES strings stand for the structures.

Turning to `COc1cc2c(cc1OC)CN(CCCCNC(=O)c1cc([76Br])cc(OC)c1OC)CC2` [[^76Br]6], in the data set on EMT-6 mammary tumors [1], the “tumor:background ratios compared with [18F]FLT” value is “higher tumor:background ratios greater than that observed with [^18F]FLT”. Further, the “% ID/g for the 4 hr high dose animals versus low dose” value with EMT-6 mammary tumors [2] (4 hr, high dose (≈150 μCi)) is “not significantly different”. Further, in the data set on EMT-6 mammary tumors [2] (1 hr, low dose (≈6 μCi)), the “% ID/g blood” value was 2.1±0.3 % ID/g, the “% ID/g brain” value was 0.25±0.02 % ID/g, the “% ID/g fat” value was determined as 1.1±0.4 % ID/g and the “% ID/g liver” value was determined as 5.4±0.4 % ID/g. Also, in the data set on EMT-6 mammary tumors [2] (1 hr, low dose (≈6 μCi)), the “% ID/g tumor” value worked out at 4.0±0.4 % ID/g. Moreover, in the data set with EMT-6 mammary tumors [2] (4 hr, low dose), the “% ID/g blood” value worked out at 0.82±0.08 % ID/g, the “% ID/g brain” value stood at 0.15±0.02 % ID/g, the “% ID/g fat” value is recorded as 0.3±0.2 % ID/g and the “% ID/g liver” value is listed as 1.3±0.2 % ID/g. Further, in the data set with EMT-6 mammary tumors [2] (4 hr, low dose), the “% ID/g tumor” value was 1.2±0.2 % ID/g.
